According to EP4241766A1, “USE OF OLFACTORY RECEPTOR OR13A1 LIGANDS IN THE TREATMENT OF LYMPHOMAS” (Fondazione Per L'Istituto Oncologico Di Ricerca (IOR), priority 2022, dated 2023):

How the values were obtained:
U2932 DLBCL cell line = assay: Growth/viability of U2932 cells with doxycycline-inducible shRNA system targeting OR13A1; assay type: cell-based
Text: • Figure 1. Expression of OR13A1 across lymphoma cell lines as measured by RNA-Seq. A) Heatmap is based on log2 CPM (counts per million). Scale ranges from low (white) to high expression (black). Each horizontal represents the value for one cell line. GCB DLBCL, diffuse large B-cell lymphoma of the germinal center B-cell-type; ABC DLBCL, diffuse large B-cell lymphoma of the activated B-cell-like; MCL, mantle cell lymphoma; MZL, marginal zone lymphoma; CLL, chronic lymphocytic leukemia; PMBCL, primary mediastinal large B-cell lymphoma; BL, Burkitt lymphoma. B) OR13A1 expression level by cell of origin in DLBCL cell lines, the expression was higher in cells derived from germinal center (GC) B-cell type (GCB) than activated B cell like (ABC) DLBCL (P value = 0.03). • Figure 2. OR13A1 silencing is associated with reduction in cell viability of DLBCL cells. Left panel, real-time PCR showing reduction of OR13A1 72h after siRNA treatment. Right panel, Reduction of cell viability, measured with MTT, in DLBCL cells after gene silencing. • Figure 3. Homology model of OR13A1 with two ligands. A) cyclohexanone docked onto the orthosteric binding site. B) tyramine docked onto the orthosteric binding site. Residues identified in the model to interact with the tyramine, potentially relevant for the receptor activation, are shown in sticks, D221 and T297. • Figure 4. […] Experiments were done using U2932 cells with the doxycycline-inducible shRNA system, exposed or not to cyclohexanone (25µM). The red arrow indicates the addition of cyclohexanone. CH, cyclohexanone; sh1, doxycycline-inducible shRNA targeting OR13A1; shCNT, scramble doxycycline-inducible shRNA.
Cellular experiments followed with cyclohexanone and, among the predicted ligands, tyramine using the U2932 DLBCL cell line with the doxycycline-inducible shRNA system.

Olfr1484 = conditions: experimentally demonstrated, reference [52]; cited from earlier work
Olfr211 = target: T1, Olfr211 (Mus musculus, UniProt Q8VGH2); conditions: experimentally demonstrated, reference [52]; cited from earlier work
T1 sequence (Q8VGH2 1-309): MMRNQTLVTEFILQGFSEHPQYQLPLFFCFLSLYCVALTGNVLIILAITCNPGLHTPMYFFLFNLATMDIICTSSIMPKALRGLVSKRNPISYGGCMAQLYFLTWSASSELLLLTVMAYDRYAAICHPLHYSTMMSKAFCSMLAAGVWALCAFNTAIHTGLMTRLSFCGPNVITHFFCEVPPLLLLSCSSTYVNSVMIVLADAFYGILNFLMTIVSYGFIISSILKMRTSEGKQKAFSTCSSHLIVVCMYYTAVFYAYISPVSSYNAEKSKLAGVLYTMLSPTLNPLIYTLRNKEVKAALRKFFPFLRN

Row | SMILES | lymphoma cell line growth (U2932 DLBCL cell line; U2932 DLBCL cell line, doxycycline-inducible shRNA system) | lymphoma cell viability (U2932 DLBCL cell line; U2932, in the presence of the GPCR (OR13A1), Figure 4) | effect on growth of DLBCL cells (U2932 DLBCL cell line; U2932 cells, cyclohexanone 25µM, absence of OR13A1 (sh1), Figure 4) | growth of DLBCL cells (U2932 DLBCL cell line; U2932 cells, cyclohexanone 25µM, Figure 4) | ligand of Olfr1484 (Olfr1484) | ligand of Olfr211 (Olfr211)
1 | NCCc1ccc(O)cc1 [tyramine] | increased lymphoma cell line growth | – | – | – | – | –
2 | O=C1CCCCC1 [cyclohexanone] | – | decreased the lymphoma cell viability in the presence | The absence of OR13A1 abrogates the effect | reduces the growth of DLBCL cells | ligand | ligand
